Measurements as given in USRE34284E, “Method for assaying proteolytic enzymes” (bioMerieux Vitek, Inc., priority 1992, dated 1993).
Where “and” joins values, the source holds several entries; their conditions need not be identical. Equal entries are not always repeated. Where two headings read alike, the source gives them in different places.

Key:
[1] = test system: trypsin; assay: Kinetic constants for trypsin-catalyzed hydrolysis of BOC-ARG-MBTH, continuous assay (Example 18); format: biochemical; conditions: for kc (kinetic catalytic constant) / Km: tris buffer pH 7.8, 590 nm; for Km: read-out: Km (binding constant)
Experimental: Determination of the Kinetic Constants for the Trypsin Catalyzed Hydrolysis of N-(N-t-butoxycarbonyl)-L-Arginyl 3-methyl benzothiazolinone hydrazone (continuous assay)).
In a one cm. cuvette were mixed 3.0 mL of 0.02M tris buffer, pH 7.8, containing 0.02M 3-dimethylamino benzoic acid (DMAB) 0.1 mL of 0.065M potassium ferricyanide, and 0.1 mL of substrate (BOC-ARG-MBTH). The reaction was initiated by the addition of 1 0.1 mL of trypsin (2.33×10^-4 M in 0.1M pyrophosphate buffer, pH 8.3). Eight concentrations of substrate, from 9.98×10^-4 M to 7.8×10^-6 M, were assayed in triplicate. The increase in absorption at 590 nm was monitored continuously and the initial rates were determined. Under the conditions of the assay, a molar absorptivity of 57,000 was used to determine the concentration of the chromogen (MBTH-DMAB) produced by the hydrolysis of substrate. Table I contains the date used to determine the binding and kinetic constants (Km, kc).

[2] = test system: trypsin; assay: Continuous assay for trypsin, hydrolysis of Z-GLY-PRO-ARG-MBTH (Example 16); format: biochemical; conditions: 1 μg trypsin, 0.14M Tris pH 7.8, 0.0131M DMAB, 0.002M potassium ferricyanide, 3% dimethylformamide; substrate 1.74×10^-3, 5.8×10^-4 and 3.9×10^-4 M in triplicate; 590 nm, 5 minutes
Experimental: Saturation kinetics for N-(N-benzyloxycarbonyl)glycyl-L-prolyl-L-arginyl 3-methyl-2-benzothiazolinone hydrazone with trypsin).
A continuous assay for trypsin was performed, i.e., the oxidizing and coupling reagents for color development were included with the substrate in the reaction mixture so that color development may be monitored on a continuous basis with time. In this example the dye precursor is developed to a dye without destroying the enzymatic activity of the enzyme. The reaction was initiated by the addition of 0.1 mL of enzyme (10 μg/mL) to 0.9 mL of buffer solution containing substrate (Z-GLY-PRO-ARG-MBTH) and color developing reagents. The final concentrations in the cuvette were 1 μg trypsin +0.14M Tris buffer, pH 7.8 +0.0131M 3-dimethylamino benzoic acid (DMAB) +0.002M potassium ferricyanide +3% dimethylformamide +substrate. Substrate concentrations of 1.74×10^-3 M, 5.8×10^-4 M and 3.9×10^-4 M were assayed in triplicate. The increases in absorbance at 590 nm were monitored continuously for 5 minutes and the initial rates determined. Using the molar absorptivity of 57,000 for the chromogen produced (MBTH-DMAB), the average rate of hydrolysis was calculated to be 4.43±0.1×10^-6 mol min^-1.

[3] = Woolf-Augustinssen-Hofstee method

`Cn1c(=NNC(=O)[C@H](CCCNC(=N)N)NC(=O)OC(C)(C)C)sc2ccccc21` [BOC-ARG-MBTH, N-(N-t-butoxycarbonyl)-L-Arginyl 3-methyl benzothiazolinone hydrazone] was tested, and the I/V ([1]; I/S 100 M^-1) was 0.000565 min/M and 0.000528 min/M and 0.000625 min/M, the V/S ([1]; I/S 100 M^-1) was 0.00177 min⁻¹ and 0.0019 min⁻¹ and 0.0016 min⁻¹ and the I/V ([1]; I/S 200 M^-1) was 0.000699 min/M and 0.000742 min/M. The V/S ([1]; I/S 200 M^-1) was 0.00287 min⁻¹ and 0.0027 min⁻¹, the I/V ([1]; I/S 401 M^-1) was 0.000766 min/M and 0.00088 min/M and 0.000819 min/M and the V/S ([1]; I/S 401 M^-1) was 0.00523 min⁻¹ and 0.00456 min⁻¹ and 0.00489 min⁻¹. The I/V ([1]; I/S 802 M^-1) was 0.00108 min/M and 0.001188 min/M and 0.001033 min/M, the V/S ([1]; I/S 802 M^-1) was 0.00743 min⁻¹ and 0.00675 min⁻¹ and 0.00776 min⁻¹ and the I/V ([1]; I/S 1603 M^-1) was 0.001697 min/M and 0.001607 min/M and 0.001827 min/M. The V/S ([1]; I/S 1603 M^-1) was 0.00945 min⁻¹ and 0.00877 min⁻¹, the I/V ([1]; I/S 2305 M^-1) was 0.002969 min/M and 0.003393 min/M and the V/S ([1]; I/S 2305 M^-1) was 0.01808 min⁻¹ and 0.0108 min⁻¹ and 0.00945 min⁻¹. For the same compound, the I/V ([1]; I/S 6413 M^-1) was 0.005056 min/M and 0.00528 min/M, the V/S ([1]; I/S 6413 M^-1) was 0.01268 min⁻¹ and 0.01215 min⁻¹ and the I/V ([1]; I/S 12826 M^-1) was 0.009901 min/M and 0.009506 min/M. The V/S ([1]; I/S 12826 M^-1) was 0.01295 min⁻¹ and 0.01349 min⁻¹, the “kc (kinetic catalytic constant)” value ([1]; Lineweaver-Burk plot) was 0.0436 s⁻¹ and the Km ([1]; Lineweaver-Burk plot) was 1410 µM. For the same compound, the “kc (kinetic catalytic constant)” value [1, 3] was 0.0428 s⁻¹ and the Km [1, 3] was 1290 µM.

With `Cn1c(=NNC(=O)[C@H](CCCNC(=N)N)NC(=O)[C@@H]2CCCN2C(=O)CNC(=O)OCc2ccccc2)sc2ccccc21` [Z-GLY-PRO-ARG-MBTH, N-(N-benzyloxycarbonyl)glycyl-L-prolyl-L-arginyl 3-methyl-2-benzothiazolinone hydrazone] the “average rate of hydrolysis” value [2] was 4.43±0.1×10^-6 mol min^-1.
